Results taken from patent publication US20160367623A1, “AGONISTS OF GUANYLATE CYCLASE USEFUL FOR THE TREATMENT OF GASTROINTESTINAL DISORDERS, INFLAMMATION, CANCER AND OTHER DISORDERS” (priority 2015, published 2016).
Bridge positions count the residues as written; N and C are the ends. Ends that are not written are not given here.

Columns and labels:
[1] = tested on: patients with chronic idiopathic constipation (CIC); assay: Second phase 3 CIC trial: patient disposition, reasons for discontinuation; conditions: All Randomized
[2] = tested on: patients with chronic idiopathic constipation (CIC); assay: First phase 3 CIC trial: durable overall CSBM responders (primary endpoint); type: in vivo, human; parameters: Odds Ratio (adjusted), durable overall CSBM responders: reference not given here; conditions: for Non-Responders, % / Durable Overall CSBM Responders, %: ITT; for Durable Overall CSBM Responders, %: MRA; for proportion of durable overall responders: 12-week treatment, intention-to-treat population, placebo 10.2%; for Odds Ratio (adjusted), durable overall CSBM responders / Difference in Proportions (adjusted), responders minus placebo: adjusted for gender; for Odds Ratio (adjusted), durable overall CSBM responders: CMH
From the text: Both trials include a two-week pre-treatment baseline period, a 12-week treatment period, and a two-week post-treatment period. The phase 3 CIC program was designed to support regulatory submission in the U. S.
The primary endpoint for both trials is the proportion of durable overall responders (%), which is the current regulatory endpoint required for U.S. approval in CIC. The FDA has defined a durable overall responder as a patient who fulfills both ≧3 complete spontaneous bowel movements (CSBMs) per week plus an increase of ≧1 CSBM from baseline in the same week, for 9 out of the 12 treatment weeks. In addition, the same patient must be an overall responder for at least 3 of the last 4 treatment weeks in order to be considered a durable overall responder.
Patients were selected using Rome 3 criteria modified for CIC and had (1) fewer than 3 defecations per week, (2) loose stools occurring rarely without laxatives, (3) inadequate criteria for irritable bowel syndrome with constipation (IBS-C), and (4) at least two of the following applied to at least 25% of defecations: (a) straining during evacuation, (b) lumpy or hard stools, (c) sensation of anorectal obstruction or blockage. Rome 3 requires patients to fulfill the criteria for the last 3 months with symptom onset at least 6 months prior to diagnosis.

[3] = tested on: patients with chronic idiopathic constipation (CIC); assay: First phase 3 CIC trial: treatment emergent adverse events, safety

Which results are given for “Asn^1-Asp^2-Glu^3-Cys^4-Glu^5-Leu^6-Cys^7-Val^8-Asn^9-Val^10-Ala^11-Cys^12-Thr^13-Gly^14-Cys^15-Leu^16 (NDECELCVNVACTGCL; disulfide 4-12, 7-15) [Plecanatide]”?
Discontinuation before Week 12 (EOT), primary reason Insufficient Therapeutic Effect, (%) ([1]; 3 mg (N = 470)): (0.6) %; Discontinuation before Week 12 (EOT), primary reason Insufficient Therapeutic Effect, (%) ([1]; 6 mg (N = 471)): (0.2) %; Non-Responders, % ([2]; 3 mg (N = 453)): 79.0%; Durable Overall CSBM Responders, % ([2]; 3 mg (N = 453)): 21.0%; proportion of durable overall responders ([2]; 3.0 mg once-a-day): 21.0%; Odds Ratio (adjusted), durable overall CSBM responders ([2]; 3 mg vs placebo): 0.429; Difference in Proportions (adjusted), responders minus placebo ([2]; 3 mg): 0.107; Non-Responders, % ([2]; 6 mg (N = 441)): 80.5%; Durable Overall CSBM Responders, % ([2]; 6 mg (N = 441)): 19.5%; proportion of durable overall responders ([2]; 6.0 mg once-a-day): 19.5%; Odds Ratio (adjusted), durable overall CSBM responders ([2]; 6 mg vs placebo): 0.469; Difference in Proportions (adjusted), responders minus placebo ([2]; 6 mg): 0.094; Non-Responders, % ([2]; Active Combined (N = 894)): 79.8%; Durable Overall CSBM Responders, % ([2]; Active Combined (N = 894)): 20.2%; Serious TEAE Infections and infestations, Reasonable Possibility: E events ([3]; 3 mg (N = 474)): 0; Serious TEAE Infections and infestations, Reasonable Possibility: N patients ([3]; 3 mg (N = 474)): 0; Serious TEAE Infections and infestations: E events ([3]; 3 mg (N = 474)): 0; Serious TEAE Infections and infestations: N patients ([3]; 3 mg (N = 474)): 0; Serious TEAE Infections and infestations, Reasonable Possibility: E events ([3]; 6 mg (N = 457)): 0; Serious TEAE Infections and infestations, Reasonable Possibility: N patients ([3]; 6 mg (N = 457)): 0; Serious TEAE Infections and infestations: % patients ([3]; 6 mg (N = 457)): (0.4) %; Serious TEAE Infections and infestations: E events ([3]; 6 mg (N = 457)): 2; Serious TEAE Infections and infestations: N patients ([3]; 6 mg (N = 457)): 2
